Experimental data reported in PMC2721690 (2009).
Values belong to the compound of their own block, whether it stands above or below them.

Tests used:
Experiment in all cases: ITC
[1] = system: GR (xpt-pbuX guanine riboswitch) (RNA, riboswitch) GGACAUAUAAUCGCGUGGAUAUGGCACGCAAGUUUCUACCGGGCACCGUAAAUGUCCGACUAUGUCC; settings: 100 mM KCl, 10 mM MgCl2
[2] = system: GRA (GR C74U) (RNA, riboswitch) GGACAUAUAAUCGCGUGGAUAUGGCACGCAAGUUUCUACCGGGCACCGUAAAUGUCCGAUUAUGUCC; settings: 100 mM KCl, 10 mM MgCl2; for KD: apparent
[3] = system: GR(A21G/U75C) (RNA, riboswitch) GGACAUGUAAUCGCGUGGAUAUGGCACGCAAGUUUCUACCGGGCACCGUAAAUGUCCGACCAUGUCC; settings: 100 mM KCl, 10 mM MgCl2; 50 mM K-HEPES, pH 7.5, 30 °C; apparent
[4] = system: GR(A21U/U75A) (RNA, riboswitch) GGACAUUUAAUCGCGUGGAUAUGGCACGCAAGUUUCUACCGGGCACCGUAAAUGUCCGACAAUGUCC; settings: 100 mM KCl, 10 mM MgCl2; 50 mM K-HEPES, pH 7.5, 30 °C; apparent
[5] = system: GRA(A21U/U75A) (RNA, riboswitch) GGACAUUUAAUCGCGUGGAUAUGGCACGCAAGUUUCUACCGGGCACCGUAAAUGUCCGAUAAUGUCC; settings: 100 mM KCl, 10 mM MgCl2; 50 mM K-HEPES, pH 7.5, 30 °C; apparent
[6] = system: GRA(A21G/U75C) (RNA, riboswitch) GGACAUGUAAUCGCGUGGAUAUGGCACGCAAGUUUCUACCGGGCACCGUAAAUGUCCGAUCAUGUCC; settings: 100 mM KCl, 10 mM MgCl2; 50 mM K-HEPES, pH 7.5, 30 °C; apparent
[7] = 50 mM K-HEPES, pH 7.5, 30 °C, apparent
[8] = 50 mM K-HEPES, pH 7.5, 30 °C, no detectable binding
[9] = data not shown, text says "GR or GRA"

KD [1, 7]: 4.4 ± 1.2 µM
Compound: Nc1ncc2[nH]cnc2n1

binding [2, 8]: no
Compound: Nc1nc2[nH]cnc2c(=O)[nH]1

binding [2, 8]: no
Compound: O=c1[nH]c(=O)c2[nH]cnc2[nH]1

KD [3]: 24 ± 6.0 µM | KD [1, 7]: 0.89 ± 0.06 µM | KD ([2]; 50 mM K-HEPES, pH 7.5, 30 °C): 0.72 ± 0.04 µM
Compound: Nc1nc(Cl)c2[nH]cnc2n1

KD [3]: 9.5 ± 0.22 µM | binding ([1]; pH 7.5 to 6.0, no change, apparent): yes | binding [2, 8]: no | KD [4]: 3.3 ± 0.32 µM
Compound: O=c1[nH]cnc2nc[nH]c12

KD [3]: 13 ± 1.1 µM | KD [1, 7]: 4.1 ± 0.6 µM
Compound: Nc1nc(N)c2[nH]cnc2n1

binding ([1]; 50 mM K-HEPES, pH 7.5, 30 °C, data not shown): no
Compound: CNc1nc2[nH]cnc2c(=O)[nH]1

KD [1, 7]: 2.1 ± 0.6 µM | KD ([2]; 50 mM K-HEPES, pH 7.5, 30 °C): 2.7 ± 1.2 µM
Compound: Nc1nc(Br)c2[nH]cnc2n1

Further lines, the compound ahead of its results:

Compound: Nc1nc(F)nc2[nH]cnc12
KD ([2]; 50 mM K-HEPES, pH 7.5, 30 °C): 4.0 ± 1.1 µM

Compound: c1coc(CNc2ncnc3[nH]cnc23)c1
binding [2, 9]: no

Compound: CSc1nc(N)nc2[nH]cnc12
binding [1, 9]: no

Compound: COc1nc(N)nc2[nH]cnc12
KD [1, 7]: 23 ± 6 µM | KD ([2]; 50 mM K-HEPES, pH 7.5, 30 °C): 20 ± 6 µM

Compound: Nc1ncnc2[nH]cnc12
KD [5]: 2.1 ± 0.19 µM | binding [1, 8]: no | KD [6]: 6.0 ± 1.1 µM | KD ([2]; 50 mM K-HEPES, pH 7.5, 30 °C): 0.47 ± 0.04 µM

Compound: Nc1nc(=S)c2[nH]cnc2[nH]1
KD [1, 7]: 0.073 µM

Compound: Nc1nc(OCc2ccccc2)c2[nH]cnc2n1
binding [1, 9]: no
